Laboratory results taken from patent US20140288013A1, “METHODS AND COMPOSITIONS FOR THE MANAGEMENT OF CANCER USING 2-DG AND AN IGF-IR INHIBITOR” (priority 2011, published 2014).
Where two headings read alike, the source gives them in different places.

Experiments:
H460 [1] = experiment: MTS assay, IC50 in LKB1-null NSCLC cell line H460; format: cell-based; conditions: Homo sapiens
From the text: (§1) 2000 cells were seed in each well of a 96-well plate, and exposed to BMS754807 or 2-DG at indicated concentration for 48 hrs.
(§2) Analysis focused on NSCLC cell lines with LKB1 inactivation mutation. A549 and H460 both contain a Q37 to nonsense mutation, and H157 contains exon 2 and 3 deletion. All these mutations results in the loss of LKB1 protein function. MTS assay was used to measure the IC50 of BMS754807 and 2-DG in these cells (FIG. 1).

H460 [2] = experiment: Combination index analysis of cell proliferation, H460; format: cell-based; conditions: Homo sapiens
AKT [3] = conditions: through IGF1R and PI3K; cited from earlier work
A549 = experiment: MTS assay, IC50 in LKB1-null NSCLC cell line A549; format: cell-based; conditions: Homo sapiens
From the text: as §1, §2

H157 [4] = experiment: MTS assay, IC50 in LKB1-null NSCLC cell line H157; format: cell-based; conditions: Homo sapiens
From the text: as §1, §2

[5] = molecular target: IGF-I and IGF-binding protein 3 (IGFBP3) (Homo sapiens, UniProt P05019+P17936); conditions: 2-DG treatments; cited from earlier work
IGF-I and IGF-binding protein 3 (IGFBP3), sequence (P17936 28-291, species assumed): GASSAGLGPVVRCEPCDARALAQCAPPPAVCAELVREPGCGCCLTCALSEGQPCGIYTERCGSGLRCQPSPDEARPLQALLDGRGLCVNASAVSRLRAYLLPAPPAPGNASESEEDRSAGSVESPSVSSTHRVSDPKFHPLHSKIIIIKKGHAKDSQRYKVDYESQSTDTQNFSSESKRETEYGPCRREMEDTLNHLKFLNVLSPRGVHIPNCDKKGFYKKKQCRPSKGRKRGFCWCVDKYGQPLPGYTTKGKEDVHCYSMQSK
IGF-I and IGF-binding protein 3 (IGFBP3), sequence (P05019 49-118 limits assumed, species assumed): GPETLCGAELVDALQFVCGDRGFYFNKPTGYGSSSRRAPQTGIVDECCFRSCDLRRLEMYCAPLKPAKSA

H157 [6] = experiment: Combination index analysis of cell proliferation, H157; format: cell-based; conditions: Homo sapiens
IGF1R = experiment: 2-DG induced IGF1R phosphorylation in LKB1-null NSCLC cell lines; format: cell-based
AKT [7] = experiment: 2-DG induced AKT phosphorylation in LKB1-null NSCLC cell lines; format: cell-based; conditions: for Akt phosphorylation induced by 2-DG: FIG. 2, cell line not named at the place; for 2-DG induced AKT phosphorylation: pre-incubated with 10 μM BMS754807 for 30 minutes, then 25 mM 2-DG
Experimental: Whether 2-DG induced AKT phosphorylation can be blocked by BMS754807 was determined. LKB1-null NSCLC cell lines was pre-incubated with 10 μM of BMS754807 for 30 minutes, and then stimulated with 25 mM 2-DG to induce phosphorylation. BMS754807 blocked 2-DG induced IGF1R and AKT phosphorylation in H460, and H157 cells.

O=CC[C@@H](O)[C@H](O)[C@H](O)CO [2-DG, 2-Deoxyglucose]
IC50 (H460 [1]; NCI-H460, H460, MTS assay, 48 hrs, read-out: IC50): 14.1 mM
viability at 2500 µM (H460 [2]; NCI-H460, 2-DG 2.5 mM, read-out: FA2-DG (fraction growth inhibition by 2-DG alone)): 95%
viability at 5000 µM (H460 [2]; NCI-H460, 2-DG 5.0 mM, read-out: FA2-DG (fraction growth inhibition by 2-DG alone)): 81%
viability at 10000 µM (H460 [2]; NCI-H460, 2-DG 10.0 mM, read-out: FA2-DG (fraction growth inhibition by 2-DG alone)): 71%
activation of prosurvival oncoprotein AKT (AKT [3]): activates
IC50 (A549; A549, MTS assay, 48 hrs, read-out: IC50): 15.7 mM
IC50 (H157 [4]; NCI-H157, H157, MTS assay, 48 hrs, read-out: IC50): 21.8 mM
binding between IGF-I and IGFBP3 [5]: disrupted
viability at 2500 µM (H157 [6]; NCI-H157, 2-DG 2.5 mM, read-out: FA2-DG (fraction growth inhibition by 2-DG alone)): 93%
viability at 5000 µM (H157 [6]; NCI-H157, 2-DG 5.0 mM, read-out: FA2-DG (fraction growth inhibition by 2-DG alone)): 80%
viability at 10000 µM (H157 [6]; NCI-H157, 2-DG 10.0 mM, read-out: FA2-DG (fraction growth inhibition by 2-DG alone)): 69%

CC1(C(=O)Nc2ccc(F)nc2)CCCN1c1nc(Nc2cc(C3CC3)[nH]n2)c2cccn2n1 (stereo not shown) [BMS-754807, 1-(4-((5-cyclopropyl-1H-pyrazol-3-yl)amino)pyrrolo[2,1-f][1,2,4]triazin-2-yl)-N-(6-fluoropyridin-3-yl)-2-methylpyrrolidine-2-carboxamide]
IC50 (H460 [1]; NCI-H460, 48 h): 0.00325 mM
viability at 5 µM (H460 [2]; NCI-H460, BMS-754807 5.0 uM, read-out: FABMS-754807 (fraction growth inhibition by BMS-754807 alone)): 80%
viability at 10 µM (H460 [2]; NCI-H460, BMS-754807 10.0 uM, read-out: FABMS-754807 (fraction growth inhibition by BMS-754807 alone)): 69%
2-DG induced IGF1R phosphorylation (IGF1R; FIG. 2, cell line not named at the place): blocked
2-DG induced IGF1R phosphorylation (IGF1R; H157 cells, pre-incubated with 10 μM BMS754807 for 30 minutes, then 25 mM 2-DG): blocked
2-DG induced IGF1R phosphorylation (IGF1R; H460 cells, pre-incubated with 10 μM BMS754807 for 30 minutes, then 25 mM 2-DG): blocked
IC50 (A549; A549, 48 h): 0.0166 mM
IC50 (H157 [4]; NCI-H157, 48 h): 0.0108 mM
Akt phosphorylation induced by 2-DG (AKT [7]): block
Akt phosphorylation induced by 2-DG (AKT [7]; listed as BMS754807): blocked
2-DG induced AKT phosphorylation (AKT [7]; H157 cells): blocked
2-DG induced AKT phosphorylation (AKT [7]; H460 cells): blocked
viability at 5 µM (H157 [6]; NCI-H157, BMS-754807 5.0 uM, read-out: FABMS-754807 (fraction growth inhibition by BMS-754807 alone)): 99%
viability at 10 µM (H157 [6]; NCI-H157, BMS-754807 10.0 uM, read-out: FABMS-754807 (fraction growth inhibition by BMS-754807 alone)): 82%
